Test results from patent US12208092B2, “Compositions and methods for administering paltusotine to patients with hepatic impairment” (CRINETICS PHARMACEUTICALS, INC., priority 2023, dated 2025).
Read-outs that look alike come from different tables or passages of the source.

Key:
[1] = plasma exposure in 14-day rat study; assay type: in vivo; conditions: 10 mg/kg/day oral
[2] = SAD/MAD oral administration in healthy adult male subjects; assay type: in vivo, human; conditions: 1.25 to 20 mg (SAD) and 5 to 30 mg (MAD)
Procedure: A dose of 20 mg paltusotine was chosen for the oral dose in the ADME study as a possible therapeutic dose estimated by PD activities of suppression of growth hormone releasing hormone (GHRH) stimulated GH secretion.

SST2 = SST2 (Homo sapiens, UniProt P30874); experiment: bias of G-protein activation versus β-arrestin activation; assay type: cell-based
[3] = system: human liver microsomes and recombinant CYP450s; experiment: CYP phenotyping, in vitro metabolism; assay type: in vitro ADME
[4] = Phase 1 hepatic impairment study, plasma PK after single oral 20 mg tablet; assay type: in vivo, human; conditions: for AUC(0-t) / AUC(0-inf) / Cmax / MRT inf / Vd/F / half-life / Tmax: both sexes, human, plasma, oral, 20 mg; for AUC(0-inf): read-out: AUC(0-inf), Mean ± SD; for Cmax: read-out: Cmax, Mean ± SD; for MRT inf: read-out: MRT(0-inf), Median (min, max); for Vd/F: read-out: VZ/F, Mean ± SD; for half-life: read-out: t1/2, Mean ± SD (converted); for Tmax: read-out: tmax, Median (min, max); for AUC(0-inf) Geometric Mean Ratio (90% CI), sensitivity analysis / AUC(0-t) Geometric Mean Ratio (90% CI), sensitivity analysis / Cmax Geometric Mean Ratio (90% CI), sensitivity analysis: matched pairs MMRM with age and BMI
Source text: Overall, 36 male and female subjects were enrolled, including 14 subjects with normal hepatic function, 8 subjects with mild stable hepatic impairment (Group 1), 8 subjects with moderate stable hepatic impairment (Group 2), and 6 subjects with severe stable hepatic impairment (Group 3). Healthy subjects with normal hepatic function (Group 4) were matched with hepatically impaired subjects according to sex, age (±10 years), and BMI (±20%). A reasonable attempt was made to match healthy subjects with hepatically impaired subjects in terms of race. Healthy subjects may have matched to more than 1 subject in different hepatic impairment groups but not more than 1 subject within each hepatic impairment group. Healthy subjects were recruited into the study after a sufficient number of hepatically impaired subjects were enrolled in Groups 1, 2, and 3.
The Child-Pugh scale was used to categorize the degree of hepatic impairment for assignment into the mild (score of 5-6), moderate (score of 7-9), and severe hepatic impairment (score of 10-15) groups.
The study included a screening period (Days −28 to −2), check-in (Day −1), and a treatment period (Days 1 to 7). On Day 1, all subjects received a single oral dose of 20 mg of paltusotine (1×20 mg tablet) administered with 240 mL of room temperature water following an overnight fast (nothing to eat or drink except water) of at least 10 hours. Subjects remained fasted and upright (seated or standing) for 4 hours after dosing. Water was permitted as desired except for the period 1 hour before and 1 hour after administration of study drug. Subjects received standardized meals that were scheduled at the same time daily during the study.
Serial blood samples for PK analysis of paltusotine were collected before dosing (0 hour) and up to 144 hours after administration of paltusotine.
Blood samples for analysis of paltusotine concentrations in plasma were collected at the following time points: before dosing (0 hour) and at 0.25, 0.5, 0.75, 1, 1.25, 1.5, 2, 3, 4, 6, 8, 10, 12, 24, 48, 72, 96, 120, and 144 hours after administration of paltusotine.
Pharmacokinetic samples were analyzed using a validated liquid chromatography coupled with tandem mass spectrometry assay for paltusotine in human plasma.
Plasma concentration-time data was analyzed by non-compartmental analysis using Phoenix® WinNonlin® Version 8.3 (Certara USA, Inc., Princeton, NJ).

Sequence of SST2 (P30874 whole entry): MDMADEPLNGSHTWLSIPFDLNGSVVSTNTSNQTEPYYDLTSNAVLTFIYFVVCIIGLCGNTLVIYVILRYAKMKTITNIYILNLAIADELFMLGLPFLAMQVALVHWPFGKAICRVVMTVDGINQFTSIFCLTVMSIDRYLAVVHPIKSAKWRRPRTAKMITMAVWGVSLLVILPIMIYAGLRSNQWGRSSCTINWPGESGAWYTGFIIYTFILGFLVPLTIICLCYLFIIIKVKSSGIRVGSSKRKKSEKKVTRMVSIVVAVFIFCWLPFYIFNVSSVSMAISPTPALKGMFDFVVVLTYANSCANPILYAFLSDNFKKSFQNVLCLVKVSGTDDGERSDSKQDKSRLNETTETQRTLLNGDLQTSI

N#Cc1cccc(-c2ccc3ncc(-c4cc(F)cc(F)c4)c(N4CCC(N)CC4)c3c2)c1O [paltusotine, 3-[4-(4-amino-1-piperidyl)-3-(3,5-difluorophenyl)-6-quinolyl]-2-hydroxybenzonitrile]
AUC(0-t) ([1]; read-out: day-last mean plasma AUC0-24): 975 ng·h/mL | Cmax ([1]; read-out: day-last mean plasma Cmax): 127 ng/mL | AUC dose dependence [2]: increased dose-dependently | bias for G-protein activation (lowering cAMP) compared to β-arrestin activation (SST2): 75 fold | CYP enzymes catalyzing oxidative metabolism [3]: CYP3A4/5 catalyzes the oxidative metabolism of paltusotine with minor contribution of CYP2D6 | contribution of CYP-mediated metabolism ([3]; in vitro studies): ~16.8% | AUC(0-t) ([4]; mild hepatic impairment, read-out: AUC(0-24), Mean ± SD): 1150 ± 467 ng·h/mL | AUC(0-inf) ([4]; mild hepatic impairment): 1880 ± 926 ng·h/mL | AUC(0-t) ([4]; mild hepatic impairment, read-out: AUC(0-t), Mean ± SD): 1820 ± 888 ng·h/mL | Cmax ([4]; mild hepatic impairment): 133 ± 56.6 ng/mL | MRT inf ([4]; mild hepatic impairment): 28.3 h | Vd/F ([4]; mild hepatic impairment): 565 ± 348 L | half-life ([4]; mild hepatic impairment): 29.5 ± 9.4 h | Tmax ([4]; mild hepatic impairment): 1.63 h | AUC(0-t) ([4]; moderate hepatic impairment, read-out: AUC(0-24), Mean ± SD): 1050 ± 729 ng·h/mL | AUC(0-inf) ([4]; moderate hepatic impairment): 1620 ± 1050 ng·h/mL | AUC(0-t) ([4]; moderate hepatic impairment, read-out: AUC(0-t), Mean ± SD): 1580 ± 1040 ng·h/mL | Cmax ([4]; moderate hepatic impairment): 100 ± 74.6 ng/mL | MRT inf ([4]; moderate hepatic impairment): 25.2 h | Vd/F ([4]; moderate hepatic impairment): 1050 ± 1110 L | half-life ([4]; moderate hepatic impairment): 31.2 ± 7.93 h | Tmax ([4]; moderate hepatic impairment): 2 h | AUC(0-t) ([4]; normal hepatic function, read-out: AUC(0-24), Mean ± SD): 1070 ± 545 ng·h/mL | AUC(0-inf) ([4]; normal hepatic function): 1840 ± 947 ng·h/mL | AUC(0-t) ([4]; normal hepatic function, read-out: AUC(0-t), Mean ± SD): 1780 ± 914 ng·h/mL | Cmax ([4]; normal hepatic function): 101 ± 53.7 ng/mL | MRT inf ([4]; normal hepatic function): 34.6 h | Vd/F ([4]; normal hepatic function): 660 ± 407 L | half-life ([4]; normal hepatic function): 32.8 ± 6.92 h | Tmax ([4]; normal hepatic function): 2 h | AUC(0-t) ([4]; severe hepatic impairment, read-out: AUC(0-24), Mean ± SD): 1100 ± 704 ng·h/mL | AUC(0-inf) ([4]; severe hepatic impairment): 1740 ± 1230 ng·h/mL | AUC(0-t) ([4]; severe hepatic impairment, read-out: AUC(0-t), Mean ± SD): 1680 ± 1190 ng·h/mL | Cmax ([4]; severe hepatic impairment): 110 ± 72.7 ng/mL | MRT inf ([4]; severe hepatic impairment): 29.2 h | Vd/F ([4]; severe hepatic impairment): 666 ± 479 L | half-life ([4]; severe hepatic impairment): 29.4 ± 8.38 h | Tmax ([4]; severe hepatic impairment): 3 h | CL/F, Mean ± SD ([4]; mild hepatic impairment): 15.50 ± 13.496 L/h | Cmax higher relative to normal group ([4]; mild hepatic impairment): 35% | tlag, Median (min, max) ([4]; mild hepatic impairment): 0.00 (0.0, 0.3) h | AUC(0-inf) Geometric Mean Ratio (90% CI), sensitivity analysis ([4]; mild vs normal): 0.94 (0.591, 1.504) | AUC(0-t) Geometric Mean Ratio (90% CI), sensitivity analysis ([4]; mild vs normal): 0.95 (0.591, 1.515) | Cmax Geometric Mean Ratio (90% CI), sensitivity analysis ([4]; mild vs normal): 1.38 (0.871, 2.200) | AUC0-t and AUC0-inf lower relative to normal group ([4]; moderate hepatic impairment): approximately 25% | CL/F, Mean ± SD ([4]; moderate hepatic impairment): 24.89 ± 25.914 L/h | Cmax lower relative to normal group ([4]; moderate hepatic impairment): 24% | mean CL/F higher compared to normal group ([4]; moderate hepatic impairment): 1.8 fold | mean Vz/F higher compared to normal group ([4]; moderate hepatic impairment): 1.6 fold | tlag, Median (min, max) ([4]; moderate hepatic impairment): 0.13 (0.0, 0.5) h | AUC(0-inf) Geometric Mean Ratio (90% CI), sensitivity analysis ([4]; moderate vs normal): 0.72 (0.414, 1.251) | AUC(0-t) Geometric Mean Ratio (90% CI), sensitivity analysis ([4]; moderate vs normal): 0.71 (0.403, 1.254) | Cmax Geometric Mean Ratio (90% CI), sensitivity analysis ([4]; moderate vs normal): 0.74 (0.389, 1.412) | CL/F, Mean ± SD ([4]; normal hepatic function): 14.05 ± 7.521 L/h | tlag, Median (min, max) ([4]; normal hepatic function): 0.00 (0.0, 0.3) h | time through which concentration was measurable in systemic circulation ([4]; postdose, all groups): 144 h | CL/F, Mean ± SD ([4]; severe hepatic impairment): 15.92 ± 8.507 L/h | tlag, Median (min, max) ([4]; severe hepatic impairment): 0.00 (0.0, 0.3) h | AUC(0-inf) Geometric Mean Ratio (90% CI), sensitivity analysis ([4]; severe vs normal): 0.94 (0.516, 1.702) | AUC(0-t) Geometric Mean Ratio (90% CI), sensitivity analysis ([4]; severe vs normal): 0.93 (0.512, 1.702) | Cmax Geometric Mean Ratio (90% CI), sensitivity analysis ([4]; severe vs normal): 1.04 (0.586, 1.854)
